The values below come from patent US20070021419A1, “2-Aminophenyl-4-phenylpyrimidines as kinase inhibitors” (Cyclacel Limited, priority 2003, published 2007).

In one experiment the target is CDK2/cyclin E (Homo sapiens, UniProt P24941). Briefly: Kinase assay, radioactive phosphate incorporation, CDK2/cyclin E. It counts as biochemical. The note with it: 100 μM ATP, 30° C.; read-out: Kinase inhibition IC50 CDK2/cyclin E. The essentials: (§1)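 Inhibition is measured as reduced transfer of radioactive phosphate to a polypeptide substrate by 2-4 μg of recombinant enzyme. Mixtures with Mg/ATP (100 μM ATP, 15 mM MgCl2, [γ-32P]-ATP) in pH 7.4 MOPS-based buffer incubate at 30° C, are stopped on ice, filtered and counted.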

Another experiment addresses PLK-1 (Homo sapiens, UniProt P53350). Put plainly: Kinase assay, radioactive phosphate incorporation, PLK-1. It counts as biochemical. The note with it: 100 μM ATP, 30° C.; read-out: Kinase inhibition IC50 PLK-1. As to the method:
(§2) The compounds from the examples above were investigated for their ability to inhibit the enzymatic activity of various protein kinases. This was achieved by measurement of incorporation of radioactive phosphate from ATP into appropriate polypeptide substrates. Recombinant protein kinases and kinase complexes were produced or obtained commercially. Assays were performed using 96-well plates and appropriate assay buffers (typically 25 mM β-glycerophosphate, 20 mM MOPS, 5 MM EGTA, 1 mM DTT, 1 mM Na3VO3, pH 7.4), into which were added 2-4 μg of active enzyme with appropriate substrates. The reactions were initiated by addition of Mg/ATP mix (15 mM MgCl2+100 μM ATP with 30-50 kBq per well of [γ-^32P]-ATP) and mixtures incubated as required at 30° C. Reactions were stopped on ice, followed by filtration through p81 filterplates or GF/C filterplates (Whatman Polyfiltronics, Kent, UK). After washing 3 times with 75 mM aq orthophosphoric acid, plates were dried, scintillant added and incorporated radioactivity measured in a scintillation counter (TopCount, Packard Instruments, Pangbourne, Berks, UK). Compounds for kinase assay were made up as 10 mM stocks in DMSO and diluted into 10% DMSO in assay buffer.

The next experiment deals with GSK3β (Homo sapiens, UniProt P49841). Put plainly: Kinase assay, radioactive phosphate incorporation, GSK3β. It counts as biochemical. The note with it: 100 μM ATP, 30° C.; read-out: Kinase inhibition IC50 GSK3β. The essentials:
as §1

A further experiment concerns the target CDK1/cyclin B (Homo sapiens, UniProt P06493). Put plainly: Kinase assay, radioactive phosphate incorporation, CDK1/cyclin B. It counts as biochemical. The note with it: 100 μM ATP, 30° C.; read-out: Kinase inhibition IC50 CDK1/cyclin B. The method in brief: as §1
For another experiment, the target named is CDK4/cyclin D1 (Homo sapiens, UniProt P11802). Briefly: Kinase assay, radioactive phosphate incorporation, CDK4/cyclin D1. The note with it: 100 μM ATP, 30° C.; read-out: Kinase inhibition IC50 CDK4/cyclin D1. It counts as biochemical. The essentials: as §1
Sequence of CDK4/cyclin D1 (P11802 whole entry, species assumed): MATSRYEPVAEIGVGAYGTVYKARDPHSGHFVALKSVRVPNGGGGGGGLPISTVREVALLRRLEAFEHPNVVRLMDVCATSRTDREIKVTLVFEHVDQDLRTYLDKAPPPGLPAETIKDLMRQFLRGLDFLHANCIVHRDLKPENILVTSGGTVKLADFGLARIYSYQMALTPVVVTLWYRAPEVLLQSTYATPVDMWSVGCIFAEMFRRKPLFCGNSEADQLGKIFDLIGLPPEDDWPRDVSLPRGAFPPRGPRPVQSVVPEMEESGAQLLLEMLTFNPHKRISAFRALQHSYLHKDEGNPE
Sequence of CDK4/cyclin D1 (P24385 whole entry partner, species assumed): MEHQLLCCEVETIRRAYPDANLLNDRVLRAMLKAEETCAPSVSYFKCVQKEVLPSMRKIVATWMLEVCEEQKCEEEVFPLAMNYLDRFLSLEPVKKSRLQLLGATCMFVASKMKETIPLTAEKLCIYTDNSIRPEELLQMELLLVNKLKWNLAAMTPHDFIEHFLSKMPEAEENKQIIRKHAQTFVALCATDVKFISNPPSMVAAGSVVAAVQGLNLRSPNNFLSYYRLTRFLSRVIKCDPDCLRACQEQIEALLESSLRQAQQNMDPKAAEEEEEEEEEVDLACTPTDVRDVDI
In a further experiment the target is CDK7/cyclin H (Homo sapiens, UniProt P50613). Briefly: Kinase assay, radioactive phosphate incorporation, CDK7/cyclin H. Particulars: 100 μM ATP, 30° C.; read-out: Kinase inhibition IC50 CDK7/cyclin H. It counts as biochemical. The essentials: as §1
Sequence of CDK7/cyclin H (P50613 whole entry, species assumed): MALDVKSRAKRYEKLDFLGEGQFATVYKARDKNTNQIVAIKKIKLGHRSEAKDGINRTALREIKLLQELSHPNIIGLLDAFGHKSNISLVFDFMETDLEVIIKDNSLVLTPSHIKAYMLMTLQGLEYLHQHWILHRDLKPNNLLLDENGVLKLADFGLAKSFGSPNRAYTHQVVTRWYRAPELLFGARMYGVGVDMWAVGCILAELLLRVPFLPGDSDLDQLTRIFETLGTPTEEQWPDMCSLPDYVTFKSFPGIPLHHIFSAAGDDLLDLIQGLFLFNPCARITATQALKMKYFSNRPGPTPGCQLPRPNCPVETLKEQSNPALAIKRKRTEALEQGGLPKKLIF
Sequence of CDK7/cyclin H (P51946 whole entry partner, species assumed): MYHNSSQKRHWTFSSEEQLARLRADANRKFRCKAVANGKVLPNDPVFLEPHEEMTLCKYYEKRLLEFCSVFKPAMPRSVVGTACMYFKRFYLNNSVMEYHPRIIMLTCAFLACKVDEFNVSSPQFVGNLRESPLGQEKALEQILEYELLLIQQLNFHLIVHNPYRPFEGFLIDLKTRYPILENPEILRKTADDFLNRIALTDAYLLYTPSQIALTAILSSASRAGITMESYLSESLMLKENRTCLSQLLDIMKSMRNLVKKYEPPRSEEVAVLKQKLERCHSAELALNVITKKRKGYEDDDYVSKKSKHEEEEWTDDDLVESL
In the next experiment the target is T1, Aurora-A (Homo sapiens, UniProt O14965).
T1 sequence (O14965 1-403): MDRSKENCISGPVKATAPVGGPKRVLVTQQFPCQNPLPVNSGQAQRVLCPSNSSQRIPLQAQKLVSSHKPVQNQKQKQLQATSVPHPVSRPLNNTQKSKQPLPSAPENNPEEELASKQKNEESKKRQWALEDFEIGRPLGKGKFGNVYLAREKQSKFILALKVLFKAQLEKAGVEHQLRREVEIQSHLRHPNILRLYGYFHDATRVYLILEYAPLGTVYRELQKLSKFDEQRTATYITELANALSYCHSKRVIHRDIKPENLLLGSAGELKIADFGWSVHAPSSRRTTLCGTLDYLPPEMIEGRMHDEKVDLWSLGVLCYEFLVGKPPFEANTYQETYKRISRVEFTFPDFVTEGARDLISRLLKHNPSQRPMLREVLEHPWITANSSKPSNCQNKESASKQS
Put plainly: Kinase assay, radioactive phosphate incorporation, Aurora-A. It counts as biochemical. The note with it: 100 μM ATP, 30° C.; read-out: Kinase inhibition IC50 Aurora-A. On the procedure:
as §2

The target in the next experiment is CDK9/cyclin T1 (Homo sapiens, UniProt P50750). Briefly: Kinase assay, radioactive phosphate incorporation, CDK9/cyclin T1. Particulars: 100 μM ATP, 30° C.; read-out: Kinase inhibition IC50 CDK9/cyclin T1. It counts as biochemical. The essentials:
as §1

In the next experiment the target is CDK2/cyclin A (Homo sapiens, UniProt P24941). Put plainly: Kinase assay, radioactive phosphate incorporation, CDK2/cyclin A. It counts as biochemical. The note with it: 100 μM ATP, 30° C.; read-out: Kinase inhibition IC50 CDK2/cyclin A. The method in brief: as §1
A further experiment deals with A549. Put plainly: 72-h MTT cytotoxicity assay, A549. It counts as cell-based. The note with it: Homo sapiens, read-out: 72-h MTT IC50 A549, A549 cell line. The method in brief:
(§3)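 Cells were seeded according to doubling time, left overnight at 37° C, then exposed in triplicate to a 1/3 DMSO-derived dilution series for 72 h at 37° C. MTT (5 mg/mL stock) was added for 4 h in the dark, and the dye was solubilised in DMSO.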
(Tetrazolium dyes change colour on reduction, which living cells bring about.)

Another experiment relates to Saos-2. Briefly: 72-h MTT cytotoxicity assay, Saos-2. It counts as cell-based. Particulars: Homo sapiens, read-out: 72-h MTT IC50 Saos-2, Saos-2 cell line. The essentials: as §3
The test system of experiment [1] is transformed human cell lines (A549, HT29, Saos-2). Briefly: 72-h MTT cytotoxicity assay, average of cell lines. It counts as cell-based. Particulars: read-out: 72-h MTT IC50 Average, average of A549, HT29, Saos-2. The essentials:
as §3

A further experiment relates to HT29. Put plainly: 72-h MTT cytotoxicity assay, HT29. Particulars: Homo sapiens, HT-29, read-out: 72-h MTT IC50 HT29, HT29 cell line. It counts as cell-based. The essentials: as §3

Sequence of PLK-1 (P53350 whole entry, species assumed): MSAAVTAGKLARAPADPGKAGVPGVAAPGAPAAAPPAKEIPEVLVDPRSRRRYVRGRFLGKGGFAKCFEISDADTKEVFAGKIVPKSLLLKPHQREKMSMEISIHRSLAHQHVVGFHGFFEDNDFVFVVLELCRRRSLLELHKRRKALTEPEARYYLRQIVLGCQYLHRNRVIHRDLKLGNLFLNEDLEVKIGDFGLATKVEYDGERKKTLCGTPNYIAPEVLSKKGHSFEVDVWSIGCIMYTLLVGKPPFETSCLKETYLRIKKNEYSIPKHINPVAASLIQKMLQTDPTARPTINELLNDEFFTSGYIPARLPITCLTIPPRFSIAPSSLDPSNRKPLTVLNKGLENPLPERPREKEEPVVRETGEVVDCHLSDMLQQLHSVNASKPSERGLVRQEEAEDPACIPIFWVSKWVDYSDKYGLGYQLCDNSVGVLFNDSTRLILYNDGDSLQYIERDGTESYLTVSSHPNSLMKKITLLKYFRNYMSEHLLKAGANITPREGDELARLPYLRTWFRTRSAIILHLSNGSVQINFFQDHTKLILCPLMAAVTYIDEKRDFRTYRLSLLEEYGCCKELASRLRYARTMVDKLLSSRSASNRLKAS
Sequence of CDK9/cyclin T1 (P50750 whole entry, species assumed): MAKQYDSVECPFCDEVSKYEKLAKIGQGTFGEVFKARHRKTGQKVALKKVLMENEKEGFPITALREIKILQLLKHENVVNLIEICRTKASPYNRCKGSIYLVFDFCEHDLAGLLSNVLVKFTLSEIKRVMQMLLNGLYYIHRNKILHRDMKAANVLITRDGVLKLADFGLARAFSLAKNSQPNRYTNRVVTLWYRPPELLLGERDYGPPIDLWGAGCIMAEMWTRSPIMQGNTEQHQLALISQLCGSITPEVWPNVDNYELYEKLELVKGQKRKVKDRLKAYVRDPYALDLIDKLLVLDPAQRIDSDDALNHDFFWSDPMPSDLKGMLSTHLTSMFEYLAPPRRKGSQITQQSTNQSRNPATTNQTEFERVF
Sequence of CDK9/cyclin T1 (O60563 whole entry partner, species assumed): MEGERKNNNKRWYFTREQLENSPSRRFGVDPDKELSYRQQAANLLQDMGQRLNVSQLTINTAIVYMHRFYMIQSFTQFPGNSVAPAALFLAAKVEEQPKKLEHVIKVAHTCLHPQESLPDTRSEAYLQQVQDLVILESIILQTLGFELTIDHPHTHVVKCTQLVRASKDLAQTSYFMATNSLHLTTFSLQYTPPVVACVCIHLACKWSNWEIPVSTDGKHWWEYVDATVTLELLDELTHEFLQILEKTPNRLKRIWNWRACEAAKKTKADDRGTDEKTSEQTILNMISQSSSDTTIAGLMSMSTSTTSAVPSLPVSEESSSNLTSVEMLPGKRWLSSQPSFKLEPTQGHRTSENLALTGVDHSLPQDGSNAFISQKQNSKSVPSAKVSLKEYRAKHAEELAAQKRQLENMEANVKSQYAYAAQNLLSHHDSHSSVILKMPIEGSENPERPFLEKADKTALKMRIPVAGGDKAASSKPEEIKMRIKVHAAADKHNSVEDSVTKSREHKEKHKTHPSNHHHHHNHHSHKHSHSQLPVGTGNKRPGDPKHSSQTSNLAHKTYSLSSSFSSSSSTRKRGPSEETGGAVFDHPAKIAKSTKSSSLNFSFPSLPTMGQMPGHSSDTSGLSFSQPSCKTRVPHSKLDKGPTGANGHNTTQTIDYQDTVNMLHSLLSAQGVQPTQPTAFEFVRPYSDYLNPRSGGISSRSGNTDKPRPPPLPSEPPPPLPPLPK
Sequence of GSK3β (P49841 whole entry, species assumed): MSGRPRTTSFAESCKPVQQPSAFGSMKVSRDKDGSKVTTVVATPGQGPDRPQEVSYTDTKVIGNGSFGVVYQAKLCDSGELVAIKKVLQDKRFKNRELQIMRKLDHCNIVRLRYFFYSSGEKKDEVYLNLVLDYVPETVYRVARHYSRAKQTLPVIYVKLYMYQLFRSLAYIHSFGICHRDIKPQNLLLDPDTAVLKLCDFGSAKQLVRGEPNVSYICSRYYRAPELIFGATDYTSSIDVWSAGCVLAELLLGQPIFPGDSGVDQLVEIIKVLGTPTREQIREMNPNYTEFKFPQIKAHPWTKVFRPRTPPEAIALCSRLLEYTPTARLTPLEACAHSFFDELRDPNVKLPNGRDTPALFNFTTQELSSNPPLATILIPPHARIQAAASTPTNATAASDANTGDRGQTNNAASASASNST
Sequence of CDK1/cyclin B (P06493 whole entry, species assumed): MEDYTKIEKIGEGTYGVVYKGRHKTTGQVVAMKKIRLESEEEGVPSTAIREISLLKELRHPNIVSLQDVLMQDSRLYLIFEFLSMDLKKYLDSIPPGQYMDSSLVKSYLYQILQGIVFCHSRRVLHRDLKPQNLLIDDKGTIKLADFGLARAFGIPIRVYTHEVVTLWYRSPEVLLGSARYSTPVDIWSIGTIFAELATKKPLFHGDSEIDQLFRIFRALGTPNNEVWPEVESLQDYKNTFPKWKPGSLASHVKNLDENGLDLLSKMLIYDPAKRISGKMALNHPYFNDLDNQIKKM
Sequence of CDK1/cyclin B (P14635 whole entry partner, species assumed): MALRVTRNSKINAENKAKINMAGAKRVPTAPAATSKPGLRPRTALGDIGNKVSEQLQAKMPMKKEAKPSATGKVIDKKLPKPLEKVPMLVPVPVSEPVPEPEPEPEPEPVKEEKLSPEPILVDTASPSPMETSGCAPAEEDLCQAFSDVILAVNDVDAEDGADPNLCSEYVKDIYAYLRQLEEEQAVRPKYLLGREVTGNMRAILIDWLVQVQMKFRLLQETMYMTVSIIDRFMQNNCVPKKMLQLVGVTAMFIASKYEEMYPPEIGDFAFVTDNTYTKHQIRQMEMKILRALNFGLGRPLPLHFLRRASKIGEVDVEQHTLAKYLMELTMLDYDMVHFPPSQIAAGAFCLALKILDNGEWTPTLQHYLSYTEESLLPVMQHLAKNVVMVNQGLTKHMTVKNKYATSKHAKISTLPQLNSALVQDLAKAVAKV

Take `Nc1cccc(-c2ccnc(Nc3ccc(O)cc3)n2)c1` [Compound 15, 4-[4-(3-Amino-phenyl)-pyrimidin-2-ylamino]-phenol]: the IC50 on CDK2/cyclin E stood at 360 nM; at PLK-1 it was 7800 nM.
With `O=[N+]([O-])c1ccc(Nc2nccc(-c3cccc([N+](=O)[O-])c3)n2)cc1` [Compound 2, (4-Nitro-phenyl)-[4-(3-nitro-phenyl)-pyrimidin-2-yl]-amine], the IC50 at PLK-1 stood at 6500 nM.
As for `Clc1ccc(Nc2nccc(-c3cccc(Cl)c3)n2)cc1` [Compound 16, (4-Chloro-phenyl)-[4-(3-chloro-phenyl)-pyrimidin-2-yl]-amine], the IC50 at PLK-1 amounted to 8700 nM.
Consider `CN(c1cccc(-c2ccnc(Nc3cccc(O)c3)n2)c1)S(C)(=O)=O` [Compound 130, N-{3-[2-(3-Hydroxy-phenylamino)-pyrimidin-4-yl]-phenyl}-N-methyl-methanesulfonamide], for which the IC50 at GSK3β was determined as 50 nM; on CDK1/cyclin B it was 960 nM; on CDK4/cyclin D1, 1300 nM; on CDK2/cyclin E, 220 nM; on CDK7/cyclin H it was 1300 nM; at Aurora-A, 120 nM. The IC50 on CDK9/cyclin T1 amounted to 4 nM; on CDK2/cyclin A, 620 nM.
For `CC(=O)Nc1cccc(-c2ccnc(Nc3ccc(O)cc3)n2)c1` [Compound 11, N-{3-[2-(4-Hydroxy-phenylamino)-pyrimidin-4-yl]-phenyl}-acetamide], the IC50 with A549 amounted to 8300 nM; with Saos-2 it was 7100 nM; at CDK2/cyclin E, 250 nM; in experiment [1] it was 7600 ± 600 nM; on PLK-1 it was 6900 nM; with HT29, 7500 nM.
`NC(=O)C1CCCN(Cc2cccc(-c3ccnc(Nc4cccc([N+](=O)[O-])c4)n3)c2)C1` (centres unmarked) [Compound 99, 1-{3-[2-(3-Nitro-phenylamino)-pyrimidin-4-yl]-benzyl}-piperidine-3-carboxylic acid amide]: the IC50 on GSK3β is 40 nM; in the experiment with A549 it was 3000 nM; on CDK1/cyclin B, 1200 nM; with Saos-2, 4100 nM; on CDK4/cyclin D1, 3800 nM; at CDK2/cyclin E it was 200 nM. In addition, the IC50 on CDK7/cyclin H was 180 nM; in [1] it was 3200 ± 800 nM; in the experiment on HT29, 2600 nM; at Aurora-A, 1000 nM; at CDK9/cyclin T1, 1 nM; at CDK2/cyclin A, 1700 nM.
With `COc1ccc(-c2ccnc(Nc3cccc(O)c3)n2)cc1` [Compound 76, 3-[4-(4-Methoxy-phenyl)-pyrimidin-2-ylamino]-phenol], the IC50 at GSK3β is 10 nM; on CDK1/cyclin B, 1 nM; at CDK4/cyclin D1 it was 10 nM; on CDK2/cyclin E, 10 nM; at CDK7/cyclin H it was 120 nM; on Aurora-A it was 50 nM. In addition, the IC50 on CDK9/cyclin T1 and on CDK2/cyclin A was less than 1 nM in each case.
On to `CNc1cccc(-c2ccnc(Nc3ccc(O)cc3)n2)c1` [Compound 14, 4-[4-(3-Methylamino-phenyl)-pyrimidin-2-ylamino]-phenol], for which the IC50 at CDK2/cyclin E was 45 nM; at PLK-1, 13700 nM.
As for `O=[N+]([O-])c1cccc(Nc2nccc(-c3cccc(CO)c3)n2)c1` [Compound 91, {3-[2-(3-Nitro-phenylamino)-pyrimidin-4-yl]-phenyl}-methanol], the IC50 at GSK3β was 0.7 nM; at CDK1/cyclin B it was 590 nM; at CDK4/cyclin D1 it was 870 nM; on CDK2/cyclin E, 60 nM; at CDK7/cyclin H, 550 nM; at Aurora-A, 160 nM. Besides, the IC50 at CDK9/cyclin T1 is 0.1 nM; on CDK2/cyclin A it was 470 nM.
Consider `CC(=O)N(CC(C)C)c1cccc(-c2ccnc(Nc3ccc(O)cc3)n2)c1` [Compound 13, N-{3-[2-(4-Hydroxy-phenylamino)-pyrimidin-4-yl]-phenyl}-N-isobutyl-acetamide], for which the IC50 at CDK2/cyclin E worked out at 550 nM; at PLK-1 it was 14500 nM.
With `CN(C)Cc1cccc(-c2ccnc(Nc3ccc(N4CCOCC4)cc3)n2)c1` [Compound 82, [4-(3-Dimethylaminomethyl-phenyl)-pyrimidin-2-yl]-(4-morpholin-4-yl-phenyl)-amine], the IC50 at GSK3β was 2300 nM; in the experiment on A549, 6200 nM; at CDK1/cyclin B, 1100 nM; in the experiment with Saos-2, 6600 nM; on CDK4/cyclin D1 it was 4600 nM; at CDK2/cyclin E, 660 nM. Also, the IC50 came to 2900 nM at CDK7/cyclin H; 5800 ± 1100 nM in [1]; 4500 nM in the experiment on HT29; 400 nM on Aurora-A; 330 nM at CDK9/cyclin T1; 1500 nM on CDK2/cyclin A.
`CCN(C(C)=O)c1cccc(-c2ccnc(Nc3ccc(O)cc3)n2)c1` [Compound 10, N-Ethyl-N-{3-[2-(4-hydroxy-phenylamino)-pyrimidin-4-yl]-phenyl}-acetamide]: the IC50 was 8000 nM in the experiment on A549; 5400 nM with Saos-2; 160 nM at CDK2/cyclin E; 7700 ± 2200 nM in experiment [1]; 4800 nM at PLK-1; 9700 nM with HT29.
